We go through 11 compounds from ChEMBL document CHEMBL3046468, “Synthesis, characterization and in vitro hydrolysis studies of ester and amide prodrugs of dexibuprofen” (Med Chem Res, 2012).

Molecules are shown by their SMILES.

A short description of series [1]: Prodrug activation in simulated gastric fluid assessed as dexibuprofen regeneration rate at 10 mg by HPLC analysis. The note with it: in vitro.
Series [2] can be described thus: Half life in PBS at pH 7.4 by spectrophotometric analysis. Format: ADME.
A short description of series [3]: Half life in 80% Homo sapiens (human) plasma at pH 7.4 at 10 mg. Format: ADME, cell-free. The note with it: 80% human plasma.
The nature of series [4]: Solubility of the compound in chloroform at 5 mg. It counts as physicochemical.
A short description of series [5]: Solubility of the compound in ethyl acetate at 5 mg. Format: physicochemical.
Series [6] is described as follows: Solubility of the compound in DMF at 5 mg. Format: physicochemical.
Series [7] can be described thus: Solubility of the compound in ethanol at 5 mg. It counts as physicochemical.
Series [8] can be described thus: Solubility of the compound in 0.1 N HCl at 5 mg. Format: physicochemical. The note with it: buffer.
Series [9] in a line: Solubility of the compound in 0.1 N NaOH at 5 mg. It counts as physicochemical.
A short description of series [10]: Protein binding to 6% egg albumin at 20 ug/ml. The note with it: read-out: PPB (converted).
A short description of series [11]: Solubility of the compound in DMF. It counts as physicochemical.
Series [12] in a line: Solubility of the compound in chloroform. Format: physicochemical.
Series [13] in a line: Solubility of the compound in ethanol. It counts as physicochemical.
Series [14] is described as follows: Solubility of the compound in ethyl acetate. It counts as physicochemical.
Series [15] can be described thus: Solubility of the compound in 0.1 N HCl. It counts as physicochemical. Conditions: buffer.
Series [16] can be described thus: Solubility of the compound in 0.1 N NaOH. Format: physicochemical.

Usually half-life stands for the time needed for the level to fall by half in the phase considered. Low values mean rapid decline, high ones slow decline. As for `CC(C)Cc1ccc(C(C)C(=O)OCc2ccccc2)cc1` (stereo unspecified), in [1], the Drug metabolism result is given as “Not Active”. The half-life turned out to be 2.1 h in series [2] and 0.65 h in series [3]. Further, the solubility result in [4] was “soluble”; in series [5], “soluble”; in series [6], “soluble”; in [7], “soluble”; in series [8], “Insoluble”; in [9], “soluble”. The fraction unbound at 20 ug/ml in [10] is 0.63.

`CC(C)Cc1ccc(C(C)C(=O)OCC(O)CO)cc1` (stereo unspecified): in series [1], the Drug metabolism entry was “Not Active”. Further, the half-life in series [2] worked out at 2.1 h; in series [3], 0.483 h. In addition, the solubility entry in series [4] is listed as “soluble”; in series [5], “soluble”; in series [6], “soluble”; in series [7] it was “soluble”; in series [8] it was “Insoluble”; in series [9], “soluble”. The fraction unbound at 20 ug/ml in [10] is 0.77.

Take `CC(C)Cc1ccc(C(C)C(=O)OC(C)C)cc1` (stereo unspecified): the Drug metabolism result in series [1] is given as “Not Active”. The results for the half-life in [2] and in series [3] were 2.1 h and 0.65 h, respectively. The solubility result in series [4] is recorded as “soluble”; in [5], “soluble”; in series [6] it was “soluble”; in series [7] it was “soluble”; in [8], “Insoluble”; in series [9], “soluble”. For the same compound, the fraction unbound at 20 ug/ml in series [10] is 0.35.

For `CCCCOC(=O)C(C)c1ccc(CC(C)C)cc1` (stereo unspecified), in series [1], the Drug metabolism result is listed as “Not Active”. Besides, the half-life in [2] came out at 2.1 h; in [3] it was 0.483 h. Moreover, the solubility result in series [4] was “soluble”; in [5], “soluble”; in [6], “soluble”; in [7] it was “soluble”; in series [8], “Insoluble”; in series [9], “soluble”. Moreover, the fraction unbound at 20 ug/ml in series [10] was 0.65.

For `COC(=O)C(CC(C)C)NC(=O)C(C)c1ccc(CC(C)C)cc1` (stereo unspecified), the Drug metabolism entry in series [1] is recorded as “Not Active”. Also, the half-life in series [2] came to 3.16 h; in series [3] it was 0.883 h. Besides, the solubility entry in series [4] was “soluble”; in series [5], “soluble”; in series [6], “soluble”; in series [7], “soluble”; in series [8], “Insoluble”; in [9] it was “soluble”. The fraction unbound at 20 ug/ml in series [10] is 0.49.

Regarding `COC(=O)C(C)NC(=O)C(C)c1ccc(CC(C)C)cc1` (stereo unspecified), in [1], the Drug metabolism result is on record as “Not Active”. The results for the half-life in series [2] and in series [3] were 2.58 h and 0.883 h, respectively. Also, the solubility result is listed as “soluble” in series [4]; “soluble” in [5]; “soluble” in [6]; “soluble” in series [7]; “Insoluble” in series [8]; “soluble” in series [9]. Further, the fraction unbound at 20 ug/ml in [10] was 0.64.

Turning to `CCC(C)OC(=O)C(C)c1ccc(CC(C)C)cc1` (stereo unspecified), the Drug metabolism entry in series [1] is “Not Active”. The results for the half-life in series [2] and in series [3] were 2.1 h and 0.65 h, respectively. Also, the solubility result in series [4] is “soluble”; in series [5] it was “soluble”; in series [6], “soluble”; in [7], “soluble”; in series [8], “Insoluble”; in [9], “soluble”. The fraction unbound at 20 ug/ml in series [10] was 0.33.

Turning to `COC(=O)C(Cc1ccccc1)NC(=O)C(C)c1ccc(CC(C)C)cc1` (stereo unspecified), the Drug metabolism result in series [1] was “Not Active”. Also, the half-life in series [2] is 2.97 h; in [3] it was 0.883 h. Also, the solubility entry was “soluble” in series [4]; “soluble” in series [5]; “soluble” in series [6]; “soluble” in series [7]; “Insoluble” in series [8]; “soluble” in [9]. Also, in series [10], the fraction unbound at 20 ug/ml is 0.53.

For the compound `CC(C)Cc1ccc([C@H](C)C(=O)O)cc1` [DEXIBUPROFEN], the solubility entry in series [11] was “soluble”; in series [12], “soluble”; in series [13] it was “soluble”; in series [14], “soluble”; in [15], “Insoluble”; in series [16] it was “soluble”.

Regarding `COC(=O)CNC(=O)C(C)c1ccc(CC(C)C)cc1` (stereo unspecified), the Drug metabolism entry in series [1] is recorded as “Not Active”. The values for the half-life in series [2] and in [3] were 2.58 h and 0.883 h, respectively. For the same compound, the solubility result in series [4] was “soluble”; in [5], “soluble”; in [6] it was “soluble”; in series [7] it was “soluble”; in series [8] it was “Insoluble”; in series [9], “soluble”. For the same compound, the fraction unbound at 20 ug/ml in series [10] is 0.76.

Regarding `COC(=O)C(NC(=O)C(C)c1ccc(CC(C)C)cc1)C(C)C` (stereo unspecified), in [1], the Drug metabolism entry is recorded as “Not Active”. The half-life in series [2] came to 3.3 h; in [3] it was 0.883 h. In addition, the solubility entry in [4] is “soluble”; in [5] it was “soluble”; in [6], “soluble”; in series [7], “soluble”; in series [8] it was “Insoluble”; in series [9], “soluble”. In series [10], the fraction unbound at 20 ug/ml was 0.55.
